This is an account of results in US7994158B2, “Method for inhibiting tumor growth with dehydrosulphurenic acid extracted from Antrodia cinnamomea” (priority 2008, dated 2011).

As usually defined, the IC50 is the concentration that gives 50% inhibition. The pIC50 is −log10 of the IC50, conventionally taken in molar units.

pIC50: −log10 of the molar value. In brackets after ≈: the same amount, converted by molar mass.

Test [1] deals with human leukemic cell line U937. Put plainly: Mitochondrial transmembrane potential (DiOC6(3), flow cytometry). The note with it: 16 hours. The format is cell-based. The source says: Mitochondrial pathway is one of the pathways of apoptosis induction. In cells undergoing apoptosis, mitochondria were stimulated to regulate the Bcl-2 family of proteins, which made the inner and outer mitochondrial membrane unstable. Apoptigenic factors were further released to induce apoptosis. The apoptotic mechanism of dehydrosulphurenic acid in tumor cells was studied in this experiment by measuring the mitochondrial transmembrane potential.
Dehydrosulphurenic acid in the concentration of 5 μg/ml were used to treat human leukemic cell line U937 for 16 hours; while U937 cells treated with 4 μM anti-cancer drug Camptothecin for 16 hours were served as positive control, and cells without treatment were served as negative control. These cells were washed with PBS and incubated with 40 nM 3,3′-dihexyloxacarbocyanine (DiOC6(3), Molecular Probes, Eugene, Oreg.) in the dark at 37° C. for 15 min, and were detected by flowcytometry. Excitation and emission wavelength settings of 488 nm and 530 nm were used to detect the density of green fluorescence to further estimate mitochondrial membrane potential.
Background: In flow cytometry, cells or beads pass a laser one at a time.

The test system of test [2] is apoptosis- and mitotic catastrophe-related proteins in U937 cells. Put plainly: Western blot analysis of apoptosis-related proteins. Particulars: 5 μg/ml; 0.5-16 hours. It counts as cell-based, human. From the text:
Death receptor pathway is a signal transduction pathway of apoptosis induction. Some of the death factors, such as TNF-α and so on, bind with death receptor (DR) such as TNF family in the membrane to send death signal to cells and induce a series of apoptotic events. A family of aspartic acid-specific proteases, known as caspases, includes caspase-3 and caspase-8 would be activated during apoptotic process. Activated caspase can cleave downstream protein such as Poly(ADP-ribose) polymerase (PARP) to proceed through apoptosis. This experiment investigated the implication of the death receptor pathway in dehydrosulphurenic acid-induced apoptosis through Western blot analysis.
Dehydrosulphurenic acid in the concentration of 5 μg/ml were used to treat human leukemic cell line U937 for 0.5, 1, 2, 4, and 16 hours; while U937 cells treated with 4 μM anti-cancer drug Camptothecin for 16 hours were served as positive control, and cells without treatment were served as negative control. All the proteins from the cells were extracted with bicinchoninic acid (BCA) assay kit (Pierce, Rockford, Ill.). Equal amounts ([…]) of the protein were aliquoted and separated by electrophoresis on a 10% SDS-PAGE gel at a constant current of 20 mA and 70-100 volts. The proteins on the gel were transferred onto PVDF membranes, blocked with 5% non-fat milk, and incubated respectively with human-specific antibodies including: anti-Bcl-2, anti-Bax, anti-caspase 3, anti-caspase 8, anti-Cyclin B1, anti-p-Chk2 and anti-Actin (all were purchased from Transduction Laboratories, Lexington, Ky., USA) for 3 hours at room temperature. Secondary antibody horseradish peroxidase (purchased from Transduction Laboratories, Lexington, Ky., USA) was then added and the signals were detected under an Enhanced chemiluminescence system (ECS, Amersham Pharmacia, Piscataway, N.J.).
(A western blot detects proteins with antibodies after separation by electrophoresis.)

Test [3] deals with human pancreatic cancer cell line BxPc-3. Put plainly: Cell cycle analysis by flow cytometer (propidium iodide). The format is cell-based. Particulars: 5 and 10 μg/ml; 2 to 3 days. The procedure:
(§1) Flow cytometer was used to analyze the cell proliferation effect of dehydrosulphurenic acid toward human leukemic cell line U937 and human pancreatic cancer cell line BxPc-3.
(§2) Dehydrosulphurenic acid in the concentration of 1.25, 2.5, 5, and 10 μg/ml were used to treat human leukemic cell line U937 and the concentration of 5 and 10 μg/ml were used to treat human pancreatic cancer cell line BxPc-3; cells without addition of dehydrosulphurenic acid were served as the control group. The treated cells were fixed at […] with 70% ethanol for 1 hour and stained for 30 min with propidium iodide solution (propidium iodide, 0.5 mg/ml; RNAse, 0.1 mg/ml) contained in a CycleTEST PLUS DNA reagent kit (Becton Dickinson, Lincoln Park, N.J.). DNA content measurement on the collected 10^4 cells was performed on the FACS Calibur flow cytometer (Becton Dickinson, Calif., USA), and the cell cycle changes were analyzed using a ModFit software (Becton Dickinson).

The subject of test [4] is human leukemic cell line U937. Described as above. The format is cell-based. The protocol:
as §1, §2

The subject of test [5] is human monoblastoid leukemic cell line U937. Nature of the test: In vitro survival assay (MTT) for anti-leukemia effects. The format is cell-based. The procedure:
The NCI anti-cancer drug screen model was adopted to test the anti-cancer effect of dehydrosulphurenic acid. Dehydrosulphurenic acid was added into the culture media of human monoblastoid leukemic cell line U937 to test for tumor cell survival. This survival assay was carried out with the widely known MTT assay. American Type Culture Collection (ATCC) purchased U937 cell line is from lymphoma cells, which belongs to one of human leukemic cell lines and was classified into monoblasts during hematopoietic differentiation.
MTT assay is commonly used to determine cell proliferation, percent of viable cells, and cytotoxicity. MTT (3-[4,5-dimethylthiazol-2-yl]2,5-diphenyltetrazolium bromide) is a yellow dye, which can be absorbed by the living cells and be reduced to purplish blue formazan crystals by succinate tetrazolium reductase in mitochondria. Formazan formation can therefore be used to assess and determine the survival rate of cells.
(§3) The human leukemic cell line U937 was cultivated in RPMI media containing fetal calf serum for 24 hours and maintained in exponential growth condition. The proliferated cells were treated with dehydrosulphurenic acid in the concentration of 0 (the control group), 1.25, 2.5, 5, and 10 μg/ml (the experimental group), respectively. The cells were incubated at 37° C. in a 5% CO2 incubator for 24-72 hours. MTT was added in a concentration of 500 μg/ml into each well in dark and incubated for 4 hours, followed by the addition of 500 μl of isopropanol to stop the reaction. The plates were read on an ELISA reader at wavelength of 570 nm to determine the survival rates. The results were reported as the average±(plus/minus) SEM (Standard Error in the Mean). For statistical analysis, the t-test were used to compare the difference between each experiment result. P<0.05 was considered statistically significant.

Test [6] has as its system human pancreatic cancer cell line BxPc-3. Nature of the test: Nuclear DNA changes, DNA ladder by DNA electrophoresis. The note with it: 5 μg/ml; 24, 48, and 72 hours; data not shown. It counts as cell-based. The procedure:
(§4) Besides the abovementioned morphological changes, biochemical changes of the dying cell during apoptosis include chromatin condensation, cell shrinkage and breaking into apoptotic bodies, internucleosomal DNA fragmentation into a multiple DNA ladder during the late stage of apoptosis (can be shown in DNA electrophoresis) and so on. To further define the effects of dehydrosulphurenic acid on U937 and BxPc-3 during apoptotic stages, DNA ladders were determined using DNA electrophoresis at the present experiment.
(§5) Dehydrosulphurenic acid in the concentration of 5 μg/ml were used to treat human leukemic cell line U937 and human pancreatic cancer cell line BxPc-3 for 24, 48, and 72 hours; while U937 cells treated with 4 μM anti-cancer drug Camptothecin for 24 hours were served as positive control. Then these cells were lyzed with 0.5 ml of lysis buffer (5 mM Tris-borate (TBE), pH8.0; 0.25 ml Nonidet P-40; 1 mM EDTA; 20 μg/ml RNase (Sigma, St. Louis, Mo.)) at 37° C. for 1 hour, followed by treating with 300 μg/ml proteinase K for 1 hour. Total DNAs were extracted and analyzed by 1.5% agarose gel electrophoresis in TBE buffer (5 mM TBE buffer containing 1 μM EDTA, pH 8.0).

Test [7] deals with human leukemic cell line U937. The test is described as above. The format is cell-based. The note with it: 5 μg/ml; 24, 48, and 72 hours. The protocol:
as §4, §5

The test system of test [8] is human pancreatic cancer cell line BxPc-3. Nature of the test: Cell morphology analysis (Liu's staining). It counts as cell-based. Particulars: 10 μg/ml. The procedure: (§6) The human leukemic cell line U937 and the human pancreatic cancer cell line BxPc-3 were treated respectively with dehydrosulphurenic acid for 24-72 h and stained with Liu's staining solution. The morphological changes of cells with (the experimental group) or without dehydrosulphurenic acid treatment (the control group) were observed under inverted phase-contrast microscope and shown in FIG. 5 and FIG. 6.

For test [9], the system named is human leukemic cell line U937. Put plainly: Cell morphology analysis (Liu's staining). The format is cell-based. The note with it: treatment for 24-72 h. The protocol:
as §6

Test [10] has as its system human pancreatic cancer cell line BxPc-3. Nature of the test: In vitro survival assay (MTT) for anti-pancreatic cancer effects. It counts as cell-based. The procedure: The NCI anti-cancer drug screen model was also adopted to test the anti-cancer effect. Dehydrosulphurenic acid was added into the culture media of human pancreatic cancer cell line BxPc-3 to test for tumor cell survival. This survival assay was carried out with the abovementioned MTT assay. American Type Culture Collection (ATCC) purchased BxPc-3 cell line is from pancreatic cancer cells, which was originated from the epithelium of human pancreatic adenocarcinomas.
as §3, with “pancreatic cancer” for “leukemic”, “BxPc-3” for “U937”, “DMEM” for “RPMI”, “containing 100 IU/ml penicillin (Invitrogen, Carlsbad, Calif.), 100 IU/ml Streptomycin (Invitrogen, Carlsbad, Calif.), 2 mM glutamin (Invitrogen, Carlsbad, Calif.), 100 IU/ml penicillin (Invitrogen, Carlsbad, Calif.) and 10%” for “containing”, “(Atlanta Biologicals, Norcross, Ga.).” for “for 24 hours and maintained in exponential growth condition.”, “5” for “1.25, 2.5, 5,”

The mark [11] stands for this setting: concentration groups of 5 and 10 μg/ml, third day of experiment.

Consider `CC[C@@]1(O)C(=O)OCc2c1cc1n(c2=O)Cc2cc3ccccc3nc2-1` [Camptothecin, reference compound], for which the “decrease of mitochondrial transmembrane potential” value in [1] (4 μM camptothecin (positive control)) was 37.1%.

Regarding `C=C(CC[C@@H](C(=O)O)C1C[C@H](O)[C@@]2(C)C3=CCC4C(C)(C)[C@@H](O)CC[C@]4(C)C3=CC[C@]12C)C(C)C` (stereo partly drawn) [dehydrosulphurenic acid, 24-methylenelanosta-7,9(11)-diene-3β,15α-diol-21-oic acid], in test [2], the Bax expression entry is recorded as “not changed”, the Bcl-2 expression entry is reported as “slightly increased”, the “cleavage of PARP” value is listed as “no cleavage” and the “cyclin B1 expression” value is “up-regulated”. For the same molecule, in test [2], the “expression of caspase-3” value was “not altered”, the “expression of caspase-8” value was “not altered” and the “phosphorylation of Chk2” value is “augmented”. Further, in [3], the cell cycle arrest entry was “remarkable G0/G1 phase arrest”, the “percentage of polyploidy cells” value is “not changed” and the sub-G1 population result was “increase of cell cycle arrest at sub-G1 population”. The cell cycle arrest result in test [4] (1.25-10 μg/ml, first day of experiment) was “remarkable G2/M phase arrest”. Besides, the sub-G1 population entry in test [4] (higher concentration or second/third day of experiment) was “accumulating at sub-G1 population”. Moreover, the “percentage of cells with polyploidy” value in test [4] (with increasing concentration) is recorded as “accompanied by increasing concentration”. The “decrease of mitochondrial transmembrane potential” value in test [1] (5 μg/ml) is “no significant decrease”. Moreover, in test [5] (1.25, 2.5, 5, and 10 μg/ml (all groups), third day of experiment), the inhibitory rate entry is given as “more than 60%”. The “growth inhibition of U937 cells” value in [5] (1.25, 2.5, 5, and 10 μg/ml, first day of experiment) is reported as “inhibit the growth of U937 cells effectively”. The half-inhibitory concentration (IC50) in test [5] (Homo sapiens, U-937, MTT, data not shown, read-out: IC50 toward U937 cells) is roughly 2 µg/mL (≈ 4.13 µM). The inhibitory rate result in [5] (setting [11]) is on record as “more than 95%”. Moreover, the highest inhibitory rate in [5] (third day of experiment) was found to be 98.9%. Besides, the DNA ladder entry in [6] was “no DNA ladder”. For the same molecule, the DNA ladder result in test [7] was “obvious DNA ladders”. Further, the morphological change entry in test [8] (after 2 days of treatment) is on record as “typical cell apoptosis was observed”. Moreover, the morphological change result in test [8] (treatment for one day) is “balloon-shaped cells were presented”. Further, the morphological change result in [9] was “induced to undergo apoptosis and mitotic catastrophe”. In addition, in [10] (5 and 10 μg/ml, 24-72 hours), the “growth inhibition of BxPc-3 cells” value was “significantly inhibit the growth of BxPc-3 cells”. Besides, the negative logarithm of the IC50 (pIC50) in test [10] (Homo sapiens, BXPC-3, MTT, data not shown, read-out: IC50 toward BxPc-3 cells) was roughly 5.30. In [10] (setting [11]), the inhibitory rate result is reported as “more than 60%”. The same molecule showed a highest inhibitory rate in test [10] (third day of experiment) of 82.5%.
